Test results as given in patent US20210254056A1, “IDENTIFICATION AND TARGETED MODULATION OF GENE SIGNALING NETWORKS” (CAMP4 THERAPEUTICS CORPORATION, priority 2017, published 2021).
Structures can show the parent of a compound that is named as a salt. Where two headings read alike, the source gives them in different places.

What was measured:
[1] = test system: primary human hepatocytes; test: RNA-seq of primary human hepatocytes treated with 39 small molecules (pilot and validation); conditions: for significant modulation of gene expression: RNA-seq, p-value≤0.05, primary human hepatocytes, the modulated genes are listed in the block; for Number (#) of genes having significantly changed expression: pilot RNA-seq study of Example 2, significance: FPKM≥0.5, log 2(fold change)≥1, q-value ≤0.05
[2] = test system: hepatocytes; test: RNA-seq of hepatocytes treated with Phase III failure compounds; conditions: for significant modulation of expression of disease genes: q≤0.05, genes in the value or listed in the block; for B2M expression, RNA-seq result: gene B2M; for B9D2 expression, RNA-seq result: gene B9D2; for BAAT expression, RNA-seq result: gene BAAT; for BBOX1 expression, RNA-seq result: gene BBOX1; for BBS10 expression, RNA-seq result: gene BBS10; for BCHE expression, RNA-seq result: gene BCHE; for BCKDHB expression, RNA-seq result: gene BCKDHB; for BCKDK expression, RNA-seq result: gene BCKDK; for BCO1 expression, RNA-seq result: gene BCO1; for BCR expression, RNA-seq result: gene BCR; for BLNK expression, RNA-seq result: gene BLNK; for BLOC1S3 expression, RNA-seq result: gene BLOC1S3; for BMPR1A expression, RNA-seq result: gene BMPR1A; for BRAF expression, RNA-seq result: gene BRAF; for BSCL2 expression, RNA-seq result: gene BSCL2; for BTD expression, RNA-seq result: gene BTD; for C4A expression, RNA-seq result: gene C4A; for C9 expression, RNA-seq result: gene C9; for C10orf10 expression, RNA-seq result: gene C10orf10; for C10orf11 expression, RNA-seq result: gene C10orf11; for C15orf41 expression, RNA-seq result: gene C15orf41; for CA2 expression, RNA-seq result: gene CA2; for CA5A expression, RNA-seq result: gene CA5A; for CA12 expression, RNA-seq result: gene CA12; for CAV1 expression, RNA-seq result: gene CAV1; for CCND1 expression, RNA-seq result: gene CCND1; for CD46 expression, RNA-seq result: gene CD46; for CD81 expression, RNA-seq result: gene CD81; for CD320 expression, RNA-seq result: gene CD320; for CDAN1 expression, RNA-seq result: gene CDAN1; for CDH1 expression, RNA-seq result: gene CDH1; for CEP19 expression, RNA-seq result: gene CEP19; for CEP83 expression, RNA-seq result: gene CEP83; for CEP164 expression, RNA-seq result: gene CEP164; for CEP290 expression, RNA-seq result: gene CEP290; for CFB expression, RNA-seq result: gene CFB; for CFHR2 expression, RNA-seq result: gene CFHR2; for CHRM3 expression, RNA-seq result: gene CHRM3; for CIDEC expression, RNA-seq result: gene CIDEC; for CLDN1 expression, RNA-seq result: gene CLDN1; for COG1 expression, RNA-seq result: gene COG1; for significant changes in gene expression: RNA-seq of Table 36, FPKM≥0.5, log 2(fold-change)≥1, q-value≤0.05; for significant modulation of expression of any of the genes analyzed: p≤0.05
Method: RNA-seq was performed to determine the effects of the compounds on hepatocytes.
Significance was determined by the criteria of FPKM≥0.5, a log 2(fold-change)≥1, and a […].

[3] = RNA-seq, Phase III failure compounds, hepatocytes, significance: FPKM≥0.5, log 2(fold-change)≥1, q-value≥0.05 (so in the source)

SMILES: CC1(C)CC=C(c2ccccc2)c2cc(/C=C/c3ccc(C(=O)O)cc3)ccc21 [MT-232, Bms189453]
- significant modulation of gene expression [1]: significantly (p-value≤0.05) modulate
- Number (#) of genes having significantly changed expression [1]: 1

SMILES: CN(CCOc1ccc(CC2SC(=O)NC2=O)cc1)c1ccccn1 (stereo not shown) [MT-361, Rosiglitazone maleate]
- Number (#) of genes having significantly changed expression [1]: 78

SMILES: CCCCC(C)(C)[C@H](O)/C=C/[C@H]1[C@H](O)CC(=O)[C@@H]1C/C=C\CCCC(=O)O [MT-937, DmPGE2]
- significant modulation of gene expression [1]: significantly (p-value≤0.05) modulate

SMILES: O=C(O)CC[C@H]1CC[C@@](c2cc(F)ccc2F)(S(=O)(=O)c2ccc(Cl)cc2)CC1 [MT-308, MK-0752]
- significant modulation of gene expression [1]: significantly (p-value≤0.05) modulate

SMILES: CC(C)c1nc(CN(C)C(=O)N[C@H](C(=O)N[C@@H](Cc2ccccc2)C[C@H](O)[C@H](Cc2ccccc2)NC(=O)OCc2cncs2)C(C)C)cs1 [MT-372, Ritonavir]
- significant modulation of gene expression [1]: significantly (p-value≤0.05) modulate
- Number (#) of genes having significantly changed expression [1]: 183

SMILES: c1cc(-c2cnn3cc(-c4ccc(OCCN5CCCCC5)cc4)cnc23)ccn1 [MT-334, Dorsomorphin]
- Number (#) of genes having significantly changed expression [1]: 15

SMILES: COc1nc(C)cnc1NS(=O)(=O)c1cccnc1-c1ccc(-c2nnco2)cc1 [Zibotentan]
- Number (#) of genes having significantly changed expression [2, 3]: 505
- significant modulation of expression of disease genes ([2]; RNA-seq, hepatocytes): significantly (q≤0.05) modulate expression
- B2M expression, RNA-seq result ([2]; hepatocytes): −0.49
- B9D2 expression, RNA-seq result ([2]; hepatocytes): −0.43
- BAAT expression, RNA-seq result ([2]; hepatocytes): 0.17
- BBOX1 expression, RNA-seq result ([2]; hepatocytes): −0.45
- BBS10 expression, RNA-seq result ([2]; hepatocytes): 0.26
- BCHE expression, RNA-seq result ([2]; hepatocytes): 0.02
- BCKDHB expression, RNA-seq result ([2]; hepatocytes): −0.16
- BCKDK expression, RNA-seq result ([2]; hepatocytes): −0.21
- BCO1 expression, RNA-seq result ([2]; hepatocytes): −0.38
- BCR expression, RNA-seq result ([2]; hepatocytes): 0.14
- BLNK expression, RNA-seq result ([2]; hepatocytes): 0.09
- BLOC1S3 expression, RNA-seq result ([2]; hepatocytes): 0.15
- BMPR1A expression, RNA-seq result ([2]; hepatocytes): 0.51
- BRAF expression, RNA-seq result ([2]; hepatocytes): 0.82
- BSCL2 expression, RNA-seq result ([2]; hepatocytes): −3.20
- BTD expression, RNA-seq result ([2]; hepatocytes): 0.19
- C4A expression, RNA-seq result ([2]; hepatocytes): 0.20
- C9 expression, RNA-seq result ([2]; hepatocytes): −0.13
- C10orf10 expression, RNA-seq result ([2]; hepatocytes): −0.49
- C10orf11 expression, RNA-seq result ([2]; hepatocytes): −0.62
- C15orf41 expression, RNA-seq result ([2]; hepatocytes): 0.50
- CA2 expression, RNA-seq result ([2]; hepatocytes): −0.44
- CA5A expression, RNA-seq result ([2]; hepatocytes): 0.23
- CA12 expression, RNA-seq result ([2]; hepatocytes): 0.06
- CAV1 expression, RNA-seq result ([2]; hepatocytes): 0.15
- CCND1 expression, RNA-seq result ([2]; hepatocytes): 0.25
- CD46 expression, RNA-seq result ([2]; hepatocytes): 0.05
- CD81 expression, RNA-seq result ([2]; hepatocytes): −0.76
- CD320 expression, RNA-seq result ([2]; hepatocytes): −0.95
- CDAN1 expression, RNA-seq result ([2]; hepatocytes): 0.10
- CDH1 expression, RNA-seq result ([2]; hepatocytes): 0.50
- CEP19 expression, RNA-seq result ([2]; hepatocytes): −0.43
- CEP83 expression, RNA-seq result ([2]; hepatocytes): 0.33
- CEP164 expression, RNA-seq result ([2]; hepatocytes): 0.05
- CEP290 expression, RNA-seq result ([2]; hepatocytes): 0.01
- CFB expression, RNA-seq result ([2]; hepatocytes): −0.28
- CFHR2 expression, RNA-seq result ([2]; hepatocytes): −0.93
- CHRM3 expression, RNA-seq result ([2]; hepatocytes): 0.20
- CIDEC expression, RNA-seq result ([2]; hepatocytes): −0.40
- CLDN1 expression, RNA-seq result ([2]; hepatocytes): 0.16
- COG1 expression, RNA-seq result ([2]; hepatocytes): 0.25

SMILES: Cn1cc(C2=C(c3cn(C4CCN(Cc5ccccn5)CC4)c4ccccc34)C(=O)NC2=O)c2ccccc21 [Enzstaurin]
- Number (#) of genes having significantly changed expression [2]: 971

SMILES: CNC1(C)[C@H]2CCC(C2)C1(C)C.Cl (stereo partly drawn) [S-(+)-MecaMylaMine Hydrochloride]
- significant changes in gene expression [2]: not observed to cause any significant changes in gene expression
- significant modulation of expression of any of the genes analyzed ([2]; RNA-seq, hepatocytes): not observed to significantly modulate expression

SMILES: COc1cc2ncnc(Nc3ccc(F)c(Cl)c3)c2cc1NC(=O)/C=C/CN1CCCCC1 [Dacomitinib (PF299804, PF299), Dacomitinib]
- significant modulation of expression of any of the genes analyzed ([2]; RNA-seq, hepatocytes): not observed to significantly modulate expression

SMILES: CCCn1c(=O)c2[nH]c(C34CC5CC(CC3C5)C4)nc2n(CCC)c1=O [Rolofylline (KW-3902), Rolofylline]
- significant changes in gene expression [2]: not observed to cause any significant changes in gene expression
- significant modulation of expression of any of the genes analyzed ([2]; RNA-seq, hepatocytes): not observed to significantly modulate expression

SMILES: CC(C)[C@H](O)C(=O)N[C@@H](C)C(=O)N[C@@H]1C(=O)N(C)CCc2ccccc21 [Semagacestat]
- Number (#) of genes having significantly changed expression [2, 3]: 9
- significant modulation of expression of disease genes ([2]; RNA-seq, hepatocytes): significantly (q≤0.05) modulate expression of CYP3A4
- B2M expression, RNA-seq result ([2]; hepatocytes): −0.06
- B9D2 expression, RNA-seq result ([2]; hepatocytes): 0.10
- BAAT expression, RNA-seq result ([2]; hepatocytes): 0.02
- BBOX1 expression, RNA-seq result ([2]; hepatocytes): −0.39
- BBS10 expression, RNA-seq result ([2]; hepatocytes): −0.12
- BCHE expression, RNA-seq result ([2]; hepatocytes): −0.07
- BCKDHB expression, RNA-seq result ([2]; hepatocytes): 0.07
- BCKDK expression, RNA-seq result ([2]; hepatocytes): 0.00
- BCO1 expression, RNA-seq result ([2]; hepatocytes): −0.09
- BCR expression, RNA-seq result ([2]; hepatocytes): −0.04
- BLNK expression, RNA-seq result ([2]; hepatocytes): −0.03
- BLOC1S3 expression, RNA-seq result ([2]; hepatocytes): −0.02
- BMPR1A expression, RNA-seq result ([2]; hepatocytes): 0.01
- BRAF expression, RNA-seq result ([2]; hepatocytes): 0.30
- BSCL2 expression, RNA-seq result ([2]; hepatocytes): 0.05
- BTD expression, RNA-seq result ([2]; hepatocytes): −0.02
- C4A expression, RNA-seq result ([2]; hepatocytes): 0.16
- C9 expression, RNA-seq result ([2]; hepatocytes): −0.11
- C10orf10 expression, RNA-seq result ([2]; hepatocytes): 0.01
- C10orf11 expression, RNA-seq result ([2]; hepatocytes): −0.27
- C15orf41 expression, RNA-seq result ([2]; hepatocytes): −0.28
- CA2 expression, RNA-seq result ([2]; hepatocytes): 0.59
- CA5A expression, RNA-seq result ([2]; hepatocytes): −0.22
- CA12 expression, RNA-seq result ([2]; hepatocytes): 0.80
- CAV1 expression, RNA-seq result ([2]; hepatocytes): −0.21
- CCND1 expression, RNA-seq result ([2]; hepatocytes): −0.14
- CD46 expression, RNA-seq result ([2]; hepatocytes): −0.05
- CD81 expression, RNA-seq result ([2]; hepatocytes): −0.02
- CD320 expression, RNA-seq result ([2]; hepatocytes): −0.04
- CDAN1 expression, RNA-seq result ([2]; hepatocytes): −0.07
- CDH1 expression, RNA-seq result ([2]; hepatocytes): 0.01
- CEP19 expression, RNA-seq result ([2]; hepatocytes): −0.22
- CEP83 expression, RNA-seq result ([2]; hepatocytes): −0.04
- CEP164 expression, RNA-seq result ([2]; hepatocytes): −0.01
- CEP290 expression, RNA-seq result ([2]; hepatocytes): 0.06
- CFB expression, RNA-seq result ([2]; hepatocytes): −0.07
- CFHR2 expression, RNA-seq result ([2]; hepatocytes): 0.01
- CHRM3 expression, RNA-seq result ([2]; hepatocytes): 0.08
- CIDEC expression, RNA-seq result ([2]; hepatocytes): 0.28
- CLDN1 expression, RNA-seq result ([2]; hepatocytes): −0.05
- COG1 expression, RNA-seq result ([2]; hepatocytes): 0.17
